Measurements: patent US20240239784A1, “INDOLE COMPOUNDS AND METHODS OF USE” (GENZYME CORPORATION, priority 2021, published 2024)

Test system: NBD1
Test: Aggregation analysis of NBD1 thermal stability by differential static light scattering (DSLS)
Format: binding, Human
Settings: compound at 100 μM; ΔTagg versus DMSO control
Experimental: Purified recombinant NBD1 was produced using previously described methods (A. Schmidt, J. L. Mendoza, P. J. Thomas (2011) Biochemical and Biophysical Approaches to Probe CFTR Structure (365-376) M. D. Amaral, K. Kunzelmann (eds.), Cysic Fibrosis, Methods in Molecular Biology 741, Springer Science+Business Media). The effect of test compounds on thermal stability of NBD1 was evaluated by differential static light scattering (DSLS) using the Harbinger Stargazer-384 instrument (Epiphyte Three, Toronto, Canada). Test compounds were dissolved and diluted to desired concentrations in 100% DMSO. The compounds or DMSO controls (100 nL) were stamped into wells of a […] low volume optical plate (Corning Inc., Corning, NY) using the Echo 555 acoustic liquid handler (Labcyte Inc., San Jose, CA).
NBD1 protein was diluted to 0.2 mg/ml in S200 buffer (50 mM Tris-HCl, 150 mM NaCl, 5 mM MgCl2, 2 mM ATP, 2 mM DTT, pH7.6) containing 1% glycerol. 10 uL of protein solution was aliquoted into the 384-well plate harboring the test compounds and 10 uL mineral oil was overlayed onto the protein solution, using the epMotion robotic liquid handler (Eppendorf North America, Hauppauge, NY). After placing into the Stargazer instrument, the plate was heated at 1° C. per minute to 70° C. Images were captured from 25° C. to 70° C. every 0.5° C. At the end of the experiment run, instrument software integrated image files and analyzed data automatically. A […] regression curve was generated for each well, representing the increase in light scattering over time. A temperature of aggregation (Tagg) was calculated based on the inflection point of the curve. To better compare data across experiments the average Tagg for DMSO control wells was calculated and subtracted from values for wells containing compounds to obtain a “ΔTagg” value. These ΔTagg values reflect stabilizing efficacy of the compounds.

Structure (SMILES)	DSLS NBD1/3D Human Stability delta-T (° C.) @ 100 (μM)
CC(O)(c1ccccc1)c1cnc(-c2cccc(Oc3ccc4[nH]ccc4c3S(C)(=O)=O)c2)[nH]1 (racemic) [Example 63, 1-(2-(3-((4-(methylsulfonyl)-1H-indol-5-yl)oxy)phenyl)-1H-imidazol-5-yl)-1-phenylethan-1-ol]	A (T ≥8° C.)
OC(c1cccc(-c2nnc(Cc3ccccc3)[nH]2)c1)c1ccc2[nH]ccc2c1 (single isomer, unassigned) [Example 35A, (3-(5-Benzyl-4H-1,2,4-triazol-3-yl)phenyl)(1H-indol-5-yl)methanol]	B (4-8° C.)
OC(c1cccc(-c2nnc(Cc3ccccc3)[nH]2)c1)c1ccc2[nH]ccc2c1 (single isomer, unassigned) [Example 35B, (3-(5-Benzyl-4H-1,2,4-triazol-3-yl)phenyl)(1H-indol-5-yl)methanol]	C (≤4° C.)
CC(O)(c1ccccc1)c1cnc(-c2cccc(Oc3ccc4[nH]ccc4c3S(C)(=O)=O)c2)[nH]1 (single isomer, unassigned) [Example 63A, 1-(2-(3-((4-(methylsulfonyl)-1H-indol-5-yl)oxy)phenyl)-1H-imidazol-5-yl)-1-phenylethan-1-ol]	A (T ≥8° C.)
CC(O)(c1ccccc1)c1cnc(-c2cccc(Oc3ccc4[nH]ccc4c3S(C)(=O)=O)c2)[nH]1 (single isomer, unassigned) [Example 63B, 1-(2-(3-((4-(methylsulfonyl)-1H-indol-5-yl)oxy)phenyl)-1H-imidazol-5-yl)-1-phenylethan-1-ol]	B (4-8° C.)
CC(O)(c1ccccc1)c1c[nH]c(-c2cc(Oc3c(F)cc4[nH]ccc4c3CC3SC(=O)NC3=O)ccc2F)n1 (stereo not shown) [Example 1, 5-((6-Fluoro-5-(4-fluoro-3-(4-(1-hydroxy-1-phenylethyl)-1H-imidazol-2-yl)phenoxy)-1H-indol-4-yl)methyl)thiazolidine-2,4-dione]	A (T ≥8° C.)
CC(c1ccccc1)c1c[nH]c(-c2cc(Oc3c(F)cc4[nH]ccc4c3CC3SC(=O)NC3=O)ccc2F)n1 (stereo not shown) [Example 2, 5-((6-Fluoro-5-(4-fluoro-3-(4-(1-phenylethyl)-1H-imidazol-2-yl)phenoxy)-1H-indol-4-yl)methyl)thiazolidine-2,4-dione]	B (4-8° C.)
CC(O)(c1ccccc1)c1cnc(-c2cccc(Oc3c(F)cc4[nH]ccc4c3C=C3SC(=O)NC3=O)c2)[nH]1 (stereo not shown) [Example 3, 5-((6-fluoro-5-(3-(5-(1-hydroxy-1-phenylethyl)-1H-imidazol-2-yl)phenoxy)-1H-indol-4-yl)methylene)thiazolidine-2,4-dione]	A (T ≥8° C.)
CC(C)(c1ccccc1)c1cnc(-c2cc(Oc3c(F)cc4[nH]ccc4c3CC(=O)O)ccc2F)[nH]1 [Example 4, 2-(6-Fluoro-5-(4-fluoro-3-(5-(2-phenylpropan-2-yl)-1H-imidazol-2-yl)phenoxy)-1H-indol-4-yl)acetic acid]	A (T ≥8° C.)
CC(O)(c1ccccc1)c1cnc(-c2cccc(Oc3c(F)cc4[nH]ccc4c3S(C)(=O)=O)c2)[nH]1 (stereo not shown) [Example 5, 1-(2-(3-((6-Fluoro-4-(methylsulfonyl)-1H-indol-5-yl)oxy)phenyl)-1H-imidazol-5-yl)-1-phenylethan-1-ol]	A (T ≥8° C.)
CC(O)(c1ccccc1)c1c[nH]c(-c2cc(Oc3c(F)cc4[nH]ccc4c3S(C)(=N)=O)ccc2F)n1 (stereo not shown) [Example 6, (6-fluoro-5-(4-fluoro-3-(4-(1-hydroxy-1-phenylethyl)-1H-imidazol-2-y1)phenoxy)-1H-indol-4-y1)(imino)(methyl)-16-sulfanone]	A (T ≥8° C.)
COC(=O)c1c(Oc2cccc(-c3ncc(C(C)(O)c4ccccc4)[nH]3)c2)c(F)cc2[nH]ccc12 (stereo not shown) [Example 7, Methyl 6-fluoro-5-(3-(5-(1-hydroxy-1-phenylethyl)-1H-imidazol-2-yl)phenoxy)-1H-indole-4-carboxylate]	B (4-8° C.)
CC(O)(c1ccccc1)c1cnc(-c2cccc(Oc3c(F)cc4[nH]ccc4c3CO)c2)[nH]1 (stereo not shown) [Example 8, 1-(2-(3-((6-Fluoro-4-(hydroxymethyl)-1H-indol-5-yl)oxy)phenyl)-1H-imidazol-5-yl)-1-phenylethan-1-ol]	A (T ≥8° C.)
CC(O)(c1ccccc1)c1cnc(-c2cccc(Oc3c(F)cc4[nH]ccc4c3C(N)=O)c2)[nH]1 (stereo not shown) [Example 9, 6-Fluoro-5-(3-(5-(1-hydroxy-1-phenylethyl)-1H-imidazol-2-yl)phenoxy)-1H-indole-4-carboxamide]	A (T ≥8° C.)
CC(C)(c1ccccc1)c1cnc(-c2cc(Oc3c(F)cc4[nH]ccc4c3CCC(=O)O)ccc2F)[nH]1 [Example 10, 3-(6-Fluoro-5-(4-fluoro-3-(5-(2-phenylpropan-2-yl)-1H-imidazol-2-yl)phenoxy)-1H-indol-4-yl)propanoic acid]	A (T ≥8° C.)
O=C(O)Cc1c(Oc2cccc(-c3nnc(Cc4ccccc4)[nH]3)c2)ccc2[nH]ccc12 [Example 11, 2-(5-(3-(5-Benzyl-4H-1,2,4-triazol-3-yl)phenoxy)-1H-indol-4-yl)acetic acid]	B (4-8° C.)
O=C(Cc1c(Oc2cccc(-c3nnc(Cc4ccccc4)[nH]3)c2)ccc2[nH]ccc12)NS(=O)(=O)C1CC1 [Example 12, 2-(5-(3-(5-Benzyl-4H-1,2,4-triazol-3-yl)phenoxy)-1H-indol-4-yl)-N-(cyclopropylsulfonyl)acetamide]	A (T ≥8° C.)
Cc1c(Oc2ccc(F)c(-c3ncc(C(C)(CCC(=O)O)c4ccccc4)[nH]3)c2)c(F)cc2[nH]ccc12 (stereo not shown) [Example 13, 4-(2-(2-Fluoro-5-((6-fluoro-4-methyl-1H-indol-5-yl)oxy)phenyl)-1H-imidazol-5-yl)-4-phenylpentanoic acid]	B (4-8° C.)
CS(=O)(=O)c1c(Oc2cccc(-c3ncc(C(O)c4ccccc4)[nH]3)c2)c(F)cc2[nH]ccc12 (stereo not shown) [Example 14, (2-(3-((6-Fluoro-4-(methylsulfonyl)-1H-indol-5-yl)oxy)phenyl)-1H-imidazol-5-yl)(phenyl)methanol]	A (T ≥8° C.)
CS(=O)(=O)c1c(Oc2cccc(-c3ncc(C(N)c4ccccc4)[nH]3)c2)c(F)cc2[nH]ccc12 (stereo not shown) [Example 15, (2-(3-((6-Fluoro-4-(methylsulfonyl)-1H-indol-5-yl)oxy)phenyl)-1H-imidazol-5-yl)(phenyl)methanamine]	A (T ≥8° C.)
CC(O)(c1ccccc1)c1nnc(-c2cccc(Oc3ccc4[nH]ccc4n3)c2)[nH]1 (stereo not shown) [Example 16, 1-(5-(3-((1H-Pyrrolo[3,2-b]pyridin-5-yl)oxy)phenyl)-4H-1,2,4-triazol-3-yl)-1-phenylethan-1-ol]	B (4-8° C.)
NC(c1ccccc1)c1nnc(-c2cccc(Oc3ccc4[nH]ccc4n3)c2)[nH]1 (stereo not shown) [Example 17, (5-(3-((1H-Pyrrolo[3,2-b]pyridin-5-yl)oxy)phenyl)-4H-1,2,4-triazol-3-yl)(phenyl)methanamine]	B (4-8° C.)
